The assay concerns the target GABA-A receptor; anion channel. In words: In vitro displacement of [3H]flunitrazepam from GABA-A central benzodiazepine receptor of rat cerebral cortex membranes. The assay is classed as cell membranes, Membrane.

pIC50: −log10 of the molar value.

Turning to `O=C1OC(=O)c2c1[nH]cc1nc3ccccc3c2-1`, the pIC50 (in general, the negative decadic logarithm of the IC50, by convention in mol/L) was 6.82.
Under `COC(=O)c1cc2c(cn1)[nH]c1ccccc12` [BETA-CCM] stands 8.70; under `CCOC1OC(=O)c2[nH]cc3nc4ccccc4c-3c21` (stereo not drawn), 7.70; under `COC1OC(=O)c2[nH]cc3nc4ccccc4c-3c21` (stereo not drawn), 7.92.
Consider `O=C1OC(CO)c2c1[nH]cc1nc3ccccc3c2-1` (stereo not drawn), for which the pIC50 was 9.70. Against the preceding compound, the pIC50 is 1.78 log units higher.
Under `CCOC(=O)CN1C(=O)c2[nH]cc3nc4ccccc4c-3c2C1O` (stereo not drawn) stands 7.15; under `CC1OC(=O)c2[nH]cc3nc4ccccc4c-3c21` (stereo not drawn), 7.70; under `O=C1OC(O)c2c1[nH]cc1nc3ccccc3c2-1` (stereo not drawn), 7.33.
